# According to PubChem BioAssay (NCI):
#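 48-hour exposure; five concentrations; linearly interpolated endpoints. The concentration for 50% growth inhibition is given as GI50. TGI: total growth inhibition.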
# Tests used:
# Assay in all cases: NCI tumour cell line growth inhibition, 48 h
# [1] = test system: 786-0 renal
# [2] = test system: A498 renal
# [3] = test system: A549 NSCLC
# [4] = test system: ACHN renal
# [5] = test system: BT-549 breast
# [6] = test system: CAKI-1 renal
# [7] = test system: CCRF-CEM leukemia
# [8] = test system: COLO 205 colon
# [9] = test system: DU-145 prostate
# [10] = test system: EKVX NSCLC
# [11] = test system: HCC-2998 colon
# [12] = test system: HCT-116 colon
# [13] = test system: HCT-15 colon
# [14] = test system: HL-60(TB) leukemia
# [15] = test system: HOP-62 NSCLC
# [16] = test system: HOP-92 NSCLC
# [17] = test system: HS 578T breast
# [18] = test system: HT29 colon
# [19] = test system: IGROV1 ovarian
# [20] = test system: K-562 leukemia
# [21] = test system: KM12 colon
# [22] = test system: LOX IMVI melanoma
# [23] = test system: M14 melanoma
# [24] = test system: MALME-3M melanoma
# [25] = test system: MCF7 breast
# [26] = test system: MDA-MB-231 breast
# [27] = test system: MDA-MB-435
# [28] = test system: MDA-MB-468 breast
# [29] = test system: MOLT-4 leukemia
# [30] = test system: NCI-H226 lung
# [31] = test system: NCI-H23 lung
# [32] = test system: NCI-H460 lung
# [33] = test system: NCI-H522 lung
# [34] = test system: NCI/ADR-RES ovarian
# [35] = test system: OVCAR-3 ovarian
# [36] = test system: OVCAR-4 ovarian
# [37] = test system: OVCAR-5 ovarian
# [38] = test system: OVCAR-8 ovarian
# [39] = test system: PC-3 prostate
# [40] = test system: RPMI-8226 leukemia
# [41] = test system: RXF 393 renal
# [42] = test system: SF-268 CNS
# [43] = test system: SF-295 CNS
# [44] = test system: SF-539 CNS
# [45] = test system: SK-MEL-2 melanoma
# [46] = test system: SK-MEL-28 melanoma
# [47] = test system: SK-MEL-5 melanoma
# [48] = test system: SK-OV-3 ovarian
# [49] = test system: SN12C renal
# [50] = test system: SNB-19 CNS
# [51] = test system: SNB-75 CNS
# [52] = test system: SW-620 colon
# [53] = test system: T-47D breast
# [54] = test system: TK-10 renal
# [55] = test system: U251 CNS
# [56] = test system: UACC-257 melanoma
# [57] = test system: UACC-62 melanoma
# [58] = test system: UO-31 renal
smiles,measurement,setting,value
COC1=C[C@]23CCC(=O)N2CCc2cc4c(cc2[C@@H]3[C@@H]1OC(=O)[C@H](C)O)OCO4,GI50,[1],11 µM
same,TGI,[1],42.9 µM
same,GI50,[2],6.02 µM
same,TGI,[2],32.1 µM
same,GI50,[3],7.13 µM
same,TGI,[3],50.6 µM
same,GI50,[4],3.65 µM
same,TGI,[4],30.4 µM
same,GI50,[5],10.5 µM
same,TGI,[5],32.8 µM
same,GI50,[6],14.1 µM
same,TGI,[6],> 52 µM
same,GI50,[7],4.77 µM
same,TGI,[7],41.6 µM
same,GI50,[8],7.67 µM
same,TGI,[8],31.5 µM
same,GI50,[9],12.1 µM
same,TGI,[9],> 52 µM
same,GI50,[10],10.5 µM
same,TGI,[10],> 52 µM
same,GI50,[11],2.27 µM
same,TGI,[11],10.5 µM
same,GI50,[12],2.33 µM
same,TGI,[12],> 52 µM
same,GI50,[13],5.08 µM
same,TGI,[13],25 µM
same,GI50,[14],2.01 µM
same,TGI,[14],> 52 µM
same,GI50,[15],10.2 µM
same,TGI,[15],> 52 µM
same,GI50,[16],6.12 µM
same,TGI,[16],33.4 µM
same,GI50,[17],8.04 µM
same,TGI,[17],35.6 µM
same,GI50,[18],4.41 µM
same,TGI,[18],> 52 µM
same,GI50,[19],6.52 µM
same,TGI,[19],> 52 µM
same,GI50,[20],2.61 µM
same,TGI,[20],> 52 µM
same,GI50,[21],10.4 µM
same,TGI,[21],> 52 µM
same,GI50,[22],2.31 µM
same,TGI,[22],13.3 µM
same,GI50,[23],6.74 µM
same,TGI,[23],15.8 µM
same,GI50,[24],2.62 µM
same,TGI,[24],16.2 µM
same,GI50,[25],1.54 µM
same,TGI,[25],10.2 µM
same,GI50,[26],13.2 µM
same,TGI,[26],> 52 µM
same,GI50,[27],11.2 µM
same,TGI,[27],45.5 µM
same,GI50,[28],2.3 µM
same,TGI,[28],15.1 µM
same,GI50,[29],1.87 µM
same,TGI,[29],> 52 µM
same,GI50,[30],3.52 µM
same,TGI,[30],29.8 µM
same,GI50,[31],7.5 µM
same,TGI,[31],24.5 µM
same,GI50,[32],1.65 µM
same,TGI,[32],13.1 µM
same,GI50,[33],3.89 µM
same,TGI,[33],17.7 µM
same,GI50,[34],13.7 µM
same,TGI,[34],> 52 µM
same,GI50,[35],4.11 µM
same,TGI,[35],42.2 µM
same,GI50,[36],8.79 µM
same,TGI,[36],> 52 µM
same,GI50,[37],11.4 µM
same,TGI,[37],> 52 µM
same,GI50,[38],11.7 µM
same,TGI,[38],48.9 µM
same,GI50,[39],6.71 µM
same,TGI,[39],44.6 µM
same,GI50,[40],3.23 µM
same,TGI,[40],21 µM
same,GI50,[41],1.63 µM
same,TGI,[41],5.85 µM
same,GI50,[42],15.3 µM
same,TGI,[42],> 52 µM
same,GI50,[43],9.24 µM
same,TGI,[43],36.3 µM
same,GI50,[44],2.99 µM
same,TGI,[44],14.8 µM
same,GI50,[45],12.6 µM
same,TGI,[45],> 52 µM
same,GI50,[46],8.47 µM
same,TGI,[46],31.5 µM
same,GI50,[47],3.7 µM
same,TGI,[47],12.4 µM
same,GI50,[48],7.82 µM
same,TGI,[48],51.5 µM
same,GI50,[49],14.5 µM
same,TGI,[49],> 52 µM
same,GI50,[50],4.85 µM
same,TGI,[50],31.1 µM
same,GI50,[51],6.59 µM
same,TGI,[51],30.3 µM
same,GI50,[52],8.06 µM
same,TGI,[52],> 52 µM
same,GI50,[53],6.98 µM
same,TGI,[53],47.1 µM
same,GI50,[54],15.8 µM
same,TGI,[54],> 52 µM
same,GI50,[55],6.76 µM
same,TGI,[55],36.4 µM
same,GI50,[56],10.5 µM
same,TGI,[56],42.1 µM
same,GI50,[57],9.25 µM
same,TGI,[57],> 52 µM
same,GI50,[58],5.28 µM
same,TGI,[58],39.3 µM
